# Where two headings read alike, the source gives them in different places. Where no end group is shown, it is not given here.
# Columns and labels:
# Patr-A*03∶01 [1] = biological target: T1, Patr-A*03∶01 (Pan troglodytes, UniProt P13748); assay: cell-based peptide-binding-competition-assay, Patr-A*03∶01; set-up: species or system chimpanzee (Pan troglodytes); conditions: competition with 500nM biotinylated indicator peptide […], overnight, europium-streptavidin DELFIA
# T1 construct: expressed in transfected cells; host or cells: K562 or 721.221 cells
# Experimental: A cell-based peptide-binding-competition-assay was performed as previously described. In this assay, peptides are tested for binding to transfected cell lines expressing chimpanzee class-I molecules, while competing with a biotin-labeled reference-peptide. […] After overnight incubation, excess peptide was removed by washing and indicator-peptide bound to cells was quantified using the DELFIA-system and the Victor3 1420 multilabel counter (Perkin Elmer). The binding affinity of the indicator peptide was verified using its unlabeled peptide as competitor, this is referred to as standardized competitor [15].
# expanded CD8 T-cells = assay: intracellular cytokine staining of expanded CD8 T-cells after peptide restimulation; type: cell-based, chimpanzee (Pan troglodytes); conditions: two weeks after the final vaccine boost
# Text: For stimulation and expansion of HCV-specific cells, two different NS3-peptide-pools were compiled: NS3vaccine was a mixture of 15-mer peptides with 11 amino acids overlap, covering the NS3-sequence of the vaccine constructs; NS3challenge was a mixture of 15-mer peptides with 11 amino acids overlap covering the NS3-variants observed in the inoculum. Identification of NS3 epitopes within NS3 was first performed via the matrix setup and confirmed in a second assay using individual peptides (peptide-sequences are listed in Table S1).
# Cells isolated before infection were expanded and tested for response against peptide-pool NS3vaccine, whereas cells isolated after challenge were tested against peptide-pool NS3challenge. PBMCs isolated at the day of challenge were stimulated in two separate cultures with either NS3vaccine or NS3challenge. […]
# The cytokine production profile of HCV-specific T-cell lines was determined by intracellular cytokine staining (ICS) after restimulation with NS3-peptides. […] Cell staining was analyzed on a FACSAria (BD Bioscience) and DIVA software Version 6.1.1.
# Patr-A*03∶01 [2] = biological target: T1, Patr-A*03∶01; set-up: method as in PMID 20696916; conditions: unlabeled indicator peptide as competitor; ref [15]; read-out: IC50 of standardized competitor; cited from earlier work
# [3] = MHC class I transfected K562 or 721.221 cells, regression curves of three independent experiments
compound,measurement,setting,value
CSCC[C@H](NC(=O)[C@H](Cc1ccc(O)cc1)NC(=O)[C@H](C)NC(=O)CNC(=O)[C@H](Cc1ccccc1)NC(=O)CNC(=O)[C@@H](N)CC(C)C)C(=O)N[C@@H](CO)C(=O)N[C@@H](CCCCN)C(=O)O,IC50,Patr-A*03∶01 [1]; [3],30 nM
CC(C)C[C@H](NC(=O)[C@@H](NC(=O)[C@H](C)NC(=O)[C@H](C)N)[C@@H](C)O)C(=O)NCC(=O)N[C@@H](Cc1ccccc1)C(=O)NCC(=O)N[C@@H](C)C(=O)N[C@@H](Cc1ccc(O)cc1)C(=O)O,IC50,Patr-A*03∶01 [1]; [3],200 nM
"IRTGVRTITTGGPIT [p64, 15-mer NS3 peptide]",cytokine induction in expanded CD8 T-cells,expanded CD8 T-cells; Vac1,did not induce cytokine production
same,cytokine induction in expanded CD8 T-cells,expanded CD8 T-cells; Vac2,moderate dual IFNγ/IL-2 and IFNγ/TNFa cytokine production
VAATLGFGAYMSKAH [p59],IC50,Patr-A*03∶01 [1]; [3],60 nM
"standardized competitor peptide of Patr-A*03∶01: unlabeled peptide of the A*03∶01 indicator peptide, used as competitor (ATALECVYK; Unlabeled: no biotin on Cys6, which carries biotin in the indicator form)",IC50,Patr-A*03∶01 [2],1500 nM
KGGLRPRAG [reference compound],IC50,"Patr-A*03∶01 [1]; transfected K562 or 721.221 cells, two individual experiments",8200 nM
